The values that follow come from US10774052B2, “Heteroaryl compounds and uses thereof” (Celgene CAR LLC, priority 2013, dated 2020).

Molecules are shown by their SMILES.

Assay [1] has as its system pFGFR4 in MDA-MB-453 cells. Description: FGFR4 signaling, pFGFR4 (MDA); Western blot (Method A), MSD (Method B), ELISA (Method C). The assay is classed as cell-based. The following applies: Homo sapiens, Method B (MSD) for signaling EC50 determination.
The subject of a further assay is pFGFR4 in Huh7 cells. As to the kind of experiment: FGFR4 signaling, pFGFR4 (Huh); MSD (Method B). The note with it: Homo sapiens, Huh-7; Huh7 cells; read-out: Signaling EC50 (nM) pFGFR4 (Huh). It counts as cell-based.

For `C=CC(=O)NC1CCCCC1Nc1ncc2c(n1)N(CCOC)C(=O)N(c1c(Cl)c(OC)cc(OC)c1Cl)C2` (racemic) [Compound I-61], the EC50 (in assay [1] (MDA-MB-453 cells); with pFGFR4 in Huh7 cells) was 101 to 500 nM each time.
`C=CC(=O)Nc1ccccc1Nc1ncc2c(n1)NC(=O)N(c1cc(OC)cc(OC)c1)C2` [Compound I-125]: the EC50 (usually the concentration that produces a half-maximal response) in assay [1] (MDA-MB-453, MDA-MB-453 cells) is 501 to 999 nM; with pFGFR4 in Huh7 cells, over 1000 nM.
On to `C=CC(=O)Nc1cc(-c2nnn(C)n2)ccc1Nc1ncc2c(n1)N(C)C(=O)N(c1cc(OC)cc(OC)c1)C2` [Compound I-146], for which the EC50 (in assay [1] (MDA-MB-453 cells); in the assay with pFGFR4 in Huh7 cells) was 101 to 500 nM each time.
As to `C=CC(=O)N[C@H]1COC[C@H]1Nc1ncc2c(n1)N(C)C(=O)N(c1c(Cl)c(OC)cc(OC)c1Cl)C2` [Compound I-186], the EC50 in assay [1] (MDA-MB-453, MDA-MB-453 cells) was under 100 nM; with pFGFR4 in Huh7 cells it was under 100 nM.
`C=CC(=O)NC1CCCCC1Nc1ncc2c(n1)N(CC(F)F)C(=O)N(c1cc(OC)cc(OC)c1Cl)C2` (racemic) [Compound I-107]: the EC50 in assay [1] (MDA-MB-453, MDA-MB-453 cells) was 501 to 999 nM; in the assay with pFGFR4 in Huh7 cells it was over 1000 nM.
As for `C=CC(=O)Nc1ccccc1Nc1ncc2c(n1)N(CC(F)F)C(=O)N(c1cc(OC)cc(OC)c1Cl)C2` [Compound I-104], the EC50 (in assay [1] (MDA-MB-453 cells); in the assay on pFGFR4 in Huh7 cells) was under 100 nM each time.
Turning to `C=CC(=O)Nc1ccccc1Nc1ncc2c(n1)N(C)C(=O)N(c1c(F)c(OC)cc(OC)c1F)C2` [Compound I-131], the EC50 (in assay [1] (MDA-MB-453 cells); with pFGFR4 in Huh7 cells) was under 100 nM each time.
Consider `C=CC(=O)Nc1cc(C(F)(F)F)ccc1Nc1ncc2c(n1)N(C)C(=O)N(c1cc(OC)cc(OC)c1)C2` [Compound I-42], for which the EC50 in assay [1] (MDA-MB-453 cells) was 101 to 500 nM; in the assay with pFGFR4 in Huh7 cells, under 100 nM.
On the same counts, the results for `C=CC(=O)Nc1ccccc1Nc1ncc2c(n1)N(Cc1ccc(F)cc1)C(=O)N(c1c(Cl)c(OC)cc(OC)c1Cl)C2` [Compound I-25] are under 100 nM and 101 to 500 nM.
In the same order, the values of `C=CC(=O)NC1CC=CCC1Nc1ncc2c(n1)N(C)C(=O)N(c1c(Cl)c(OC)cc(OC)c1Cl)C2` (racemic) [Compound I-113] are 101 to 500 nM and 101 to 500 nM.
`C=CC(=O)NC1CCCCC1Nc1ncc2c(n1)N(C1CC1)C(=O)N(c1c(Cl)c(OC)cc(OC)c1Cl)C2` (racemic) [Compound I-68]: the EC50 in assay [1] (MDA-MB-453, MDA-MB-453 cells) was 101 to 500 nM; in the assay on pFGFR4 in Huh7 cells, 501 to 999 nM.
On to `C=CC(=O)Nc1ccccc1Nc1ncc2c(n1)N(CCF)C(=O)N(c1cc(OC)cc(OC)c1Cl)C2` [Compound I-110], for which the EC50 (in assay [1] (MDA-MB-453 cells); in the assay with pFGFR4 in Huh7 cells) was under 100 nM in each case.
Regarding `C=CC(=O)Nc1cc(C)ccc1Nc1ncc2c(n1)N(C)C(=O)N(c1cc(OC)cc(OC)c1)C2` [Compound I-41], the EC50 (in assay [1] (MDA-MB-453 cells); in the assay with pFGFR4 in Huh7 cells) was 101 to 500 nM each time.
For the molecule `C=CC(=O)Nc1ccccc1Nc1ncc2cc(-c3cc(OC)cc(OC)c3)c(N)nc2n1` [Compound I-155], the EC50 in assay [1] (MDA-MB-453 cells) is 101 to 500 nM; with pFGFR4 in Huh7 cells, over 1000 nM.
In the same order, the values of `C=CC(=O)Nc1nn(C)cc1Nc1ncc2c(n1)N(C)C(=O)N(c1c(Cl)c(OC)cc(OC)c1Cl)C2` [Compound I-117] are under 100 nM and under 100 nM.
On to `C=CC(=O)Nc1ccccc1Nc1ncc2c(n1)N(Cc1cccc(C(N)=O)c1)C(=O)N(c1cc(OC)cc(OC)c1)C2` [Compound I-97], for which the EC50 (in assay [1] (MDA-MB-453 cells); in the assay on pFGFR4 in Huh7 cells) was 101 to 500 nM each time.
With `C=CC(=O)NC1CCCCC1Nc1ncc2c(n1)N(Cc1ccnc(N)c1)C(=O)N(c1c(Cl)c(OC)cc(OC)c1Cl)C2` (stereo not shown) [Compound I-133], the EC50 (in assay [1] (MDA-MB-453 cells); with pFGFR4 in Huh7 cells) was under 100 nM throughout.
On to `C=CC(=O)Nc1ccccc1Nc1ncc2c(n1)N(C)C(=O)N(c1cc(OC)cc(OC)c1)C2` [Compound I-5], for which the EC50 (in assay [1] (MDA-MB-453 cells); with pFGFR4 in Huh7 cells) was 101 to 500 nM throughout.
Consider `C=CC(=O)N[C@H]1COCC[C@H]1Nc1ncc2c(n1)N(C)C(=O)N(c1c(Cl)c(OC)cc(OC)c1Cl)C2` [Compound I-140], for which the EC50 (in assay [1] (MDA-MB-453 cells); in the assay with pFGFR4 in Huh7 cells) was 101 to 500 nM in each case.
For the molecule `C=CC(=O)Nc1cc(N(C)CCOC)ccc1Nc1ncc2c(n1)N(Cc1ccccc1)C(=O)N(c1cc(OC)cc(OC)c1)C2` [Compound I-13], the EC50 in assay [1] (MDA-MB-453, MDA-MB-453 cells) lay in the range of 101 to 500 nM; in the assay on pFGFR4 in Huh7 cells, 101 to 500 nM.
